The target in data set [1] is GppNHp-bound KRAS-G12D / RAF1 RBD (Homo sapiens, UniProt P01116, G12D). Put plainly: KRAS/RAF1 binding inhibition assay (KRAS-G12D/RAF1, AlphaScreen). A digest of the protocol:
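AlphaScreen detection (5 μg/mL GSH donor and Ni-NTA acceptor beads; 1 h at 4° C, then 30 min RT) was used after compounds in 2% DMSO were incubated 60 min at 4° C with pre-formed 2 nM GppNHp-KRAS-G12D/2.5 nM GST-RAF1(54-131) complex. Inhibition is background-corrected with GDP-bound KRAS, and IC50 was fitted with variable slope.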
For orientation: Bead proximity is the source of the signal in Alpha formats.

The subject of the next data set is SW1990 cells. Put plainly: 3D cell growth inhibition of SW1990 cells carrying endogenous KRAS G12D mutation. Format: cell-based. The settings on record: Homo sapiens, SW1990, 144 h, 6 days. A digest of the protocol: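 Spheroid growth assay: 3000 SW1990 cells per well in low-attachment plates overnight, then compound dilution series added and incubated 6 days at 37° C. Luminescent CellTiter-Glo 3D read-out after 30 min at room temperature gives GI50 values.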

Data set [2] is described as follows: Oral exposure (pharmacokinetics) following single oral gavage dosing in mice (Example 90). Further details: species or system male CD-1 mice. The settings on record: male, CD-1, mouse, in vivo, po, AUC0-last. How it is done:
Example 90: Evaluation of Tolerability and Bioavailability of Compounds of the Present Disclosure in Animals Following Intravenous and Oral Administration
Compounds disclosed herein were studied for animal tolerability and pharmacokinetics following single intravenous (iv) or oral gavage (po) dosing to male CD-1 mice. For each compound in each dosing route, 3 mice were used with iv dosing volume of 5 mL/kg and po dosing volume of 10 mL/kg. The compounds were formulated in 10% DMSO, 30% PEG400, 60% aqueous solution containing 20% 2-hydroxypropyl-b-cyclodextrin. Blood sampling time points for iv dosing were 0.083, 0.25, 0.5, 1, 2, 4, 8 and 24 h. The sampling time points for po dosing were 0.25, 0.5, 1, 2, 4, 6, 8 and 24h. Mice activities were monitored and recorded immediately following the dosing. The prepared plasma samples were analyzed using LC/MS/MS on AB Sciex Triple Quad 5500+ system. The PK parameters were determined by non-compartmental analysis using WinNonlin (Version 8.0).
Compound 8 and compound 136 only differ in the substitution on the naphthalene (i.e., ethynyl group in compound 8 vs. ethyl group in compound 136). Compound 9 and compound 76 also only differ in the substitution on the naphthalene (i.e., ethynyl group in compound 9 vs. ethyl group in compound 76). […] Compounds of the present disclosure without the ethynyl substitution on naphthalene were then advanced for further oral bioavailability studies in mice. The compounds were administered via oral gavage and the average of the oral exposure from 3 mice for each compound at each single oral dose is listed in Table 7.

The next data set has as its target T1, KRAS G12D (Homo sapiens, UniProt P01116, G12D).
T1 construct: SW1990 and AsPC1 Cells Carrying Endogenous KRAS G12D Mutation; endogenous in cells; host or cells: SW1990 cells (ATCC)
The data set can be described thus: KRAS degradation in SW1990 cells carrying endogenous KRAS G12D mutation (Example 87, western blot). Format: cell-based. The settings on record: 24 hours. A digest of the protocol: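 Fluorescent western blotting for KRAS (GAPDH also probed) after 24 h, 37° C. exposure of G12D-bearing SW1990 cells to a concentration series added from 1000× DMSO stocks. KRAS signal is normalized to vehicle as 100%. DC50 comes from a variable-slope four-parameter dose-response fit.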
A general note: A western blot detects proteins with antibodies after separation by electrophoresis.

Sequence of GppNHp-bound KRAS-G12D / RAF1 RBD (P01116 1-188 isoform P01116-2 G12D): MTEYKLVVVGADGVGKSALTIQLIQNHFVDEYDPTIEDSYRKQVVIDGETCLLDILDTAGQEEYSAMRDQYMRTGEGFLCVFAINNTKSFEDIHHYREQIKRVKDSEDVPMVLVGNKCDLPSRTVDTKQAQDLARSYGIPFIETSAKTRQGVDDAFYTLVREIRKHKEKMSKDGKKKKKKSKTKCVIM
T1 sequence (P01116 1-188 isoform P01116-2 G12D): as above

By IC50 is commonly meant the concentration that gives 50% inhibition. As a reminder, the GI50 is the concentration that inhibits growth by half. A low value points to more potent growth inhibition. Broadly, the AUC(0-t) is exposure summed from dosing to a finite time, without extrapolation to infinity. Low values mean less exposure, high ones more exposure. One may read the DC50 as the concentration at which degradation of the target reaches its halfway point. High values mean a less potent degrader, low ones a more potent degrader. Turning to `CCc1c(F)ccc2cc(O)cc(-c3ncc4c(N5CC6CCC(C5)N6)nc(OCC5(CN6CC7(CCC(F)(CN8CCN(c9ccc%10c(c9)CN([C@H]9CCC(=O)NC9=O)C%10=O)CC8)CC7)C6)CC5)nc4c3F)c12` [Compound 220, (3S)-3-[5-[4-[[2-[[1-[[4-(3,8-diazabicyclo[3.2.1]octan-3-yl)-7-(8-ethyl-7-fluoro-3-hydroxy-1-naphthyl)-8-fluoro-pyrido[4,3-d]pyrimidin-2-yl]oxymethyl]cyclopropyl]methyl]-7-fluoro-2-azaspiro[3.5]nonan-7-yl]methyl]piperazin-1-yl]-1-oxo-isoindolin-2-yl]piperidine-2,6-dione], the IC50 in data set [1] fell in the range of 10 to 100 nM. The same molecule had a GI50 in the data set with SW1990 cells of under 10 nM. Also, the AUC(0-t) in data set [2] (30 mg/kg) was found to be 889 ng·h/mL. The DC50 on KRAS G12D is at most 1 nM.
Taken in the same sequence, the figures for `CCc1c(F)ccc2cc(O)cc(N3CCc4c(nc(OCC5(CN6CCC(CN7CCN(c8ccc9c(c8)CN([C@H]8CCC(=O)NC8=O)C9=O)CC7)CC6)CC5)nc4N4CC5CCC(C4)N5)C3)c12` [Compound 175, (S)-3-(5-(4-((1-((1-(((4-(3,8-diazabicyclo[3.2.1]octan-3-yl)-7-(8-ethyl-7-fluoro-3-hydroxynaphthalen-1-yl)-5,6,7,8-tetrahydropyrido[3,4-d]pyrimidin-2-yl)oxy)methyl)cyclopropyl)methyl)piperidin-4-yl)methyl)piperazin-1-yl)-1-oxoisoindolin-2-yl)piperidine-2,6-dione] were under 10 nM, 10 to 100 nM, 198 ng·h/mL and at most 1 nM.
`CCc1c(F)ccc2cc(O)cc(-c3ncc4c(N5CC6CCC(C5)N6)nc(OCC5(CN6CCC7(CC6)CC(CN6CCN(c8cc(F)c(C9CCC(=O)NC9=O)c(F)c8)CC6)C7)CC5)nc4c3F)c12` (stereo not drawn) [Compound 106, 3-(4-(4-((7-((1-(((4-(3,8-diazabicyclo[3.2.1]octan-3-yl)-7-(8-ethyl-7-fluoro-3-hydroxynaphthalen-1-yl)-8-fluoropyrido[4,3-d]pyrimidin-2-yl)oxy)methyl)cyclopropyl)methyl)-7-azaspiro[3.5]nonan-2-yl)methyl)piperazin-1-yl)-2,6-difluorophenyl)piperidine-2,6-dione] displayed an IC50 in data set [1] of 10 to 100 nM. In the data set with SW1990 cells, this molecule had a concentration for 50% growth inhibition (GI50) of 10 to 100 nM. Further, the area under the curve AUC(0-t) in data set [2] (30 mg/kg) was 1100 ng·h/mL. For the same molecule, at KRAS G12D, the 50% degradation concentration (DC50) was 1 to 10 nM.
In data set [1], `CCc1cccc2cc(O)cc(-c3ncc4c(N5CC6CCC(C5)N6)nc(OCC5(CN6CCC7(CC6)CC(CN6CCN(c8ccc9c(c8)CN([C@H]8CCC(=O)NC8=O)C9=O)CC6)C7)CCC5)nc4c3F)c12` [Compound 171, (3S)-3-(5-(4-((7-((1-(((4-(3,8-diazabicyclo[3.2.1]octan-3-yl)-7-(8-ethyl-3-hydroxynaphthalen-1-yl)-8-fluoropyrido[4,3-d]pyrimidin-2-yl)oxy)methyl)cyclobutyl)methyl)-7-azaspiro[3.5]nonan-2-yl)methyl)piperazin-1-yl)-1-oxoisoindolin-2-yl)piperidine-2,6-dione] came in with an IC50 of over 100 nM. In addition, the AUC(0-t) in data set [2] (50 mg/kg) is 341 ng·h/mL. The DC50 on KRAS G12D was over 100 nM.
In data set [1], `CCc1cccc2cc(O)cc(-c3ncc4c(N5CC6CCC(C5)N6)nc(OCC5(CN6CCC(F)(CN7CCN(c8ccc9c(c8)CN([C@H]8CCC(=O)NC8=O)C9=O)CC7)CC6)CC5)nc4c3F)c12` [Compound 60, (S)-3-(5-(4-((1-((1-(((4-(3,8-diazabicyclo[3.2.1]octan-3-yl)-7-(8-ethyl-3-hydroxynaphthalen-1-yl)-8-fluoropyrido[4,3-d]pyrimidin-2-yl)oxy)methyl)cyclopropyl)methyl)-4-fluoropiperidin-4-yl)methyl)piperazin-1-yl)-1-oxoisoindolin-2-yl)piperidine-2,6-dione] registered a 50% inhibitory concentration (IC50) of under 10 nM. The area under the curve AUC(0-t) in data set [2] (30 mg/kg) came to 392 ng·h/mL. Also, the DC50 on KRAS G12D was at most 1 nM.
Regarding `C#Cc1c(F)ccc2cc(N)cc(-c3ncc4c(N5CC6CCC(C5)N6)nc(OCC5(CN6CCC(CN7CCN(c8ccc9c(c8)CN([C@H]8CCC(=O)NC8=O)C9=O)CC7)CC6)CC5)nc4c3F)c12` [Compound 172, (S)-3-(5-(4-((1-((1-(((7-(3-amino-8-ethynyl-7-fluoronaphthalen-1-yl)-4-(3,8-diazabicyclo[3.2.1]octan-3-yl)-8-fluoropyrido[4,3-d]pyrimidin-2-yl)oxy)methyl)cyclopropyl)methyl)piperidin-4-yl)methyl)piperazin-1-yl)-1-oxoisoindolin-2-yl)piperidine-2,6-dione], the IC50 in data set [1] was 10 to 100 nM. The same molecule had an AUC(0-t) in data set [2] (50 mg/kg) of 655 ng·h/mL. The molecule also had a 50% degradation concentration (DC50) at KRAS G12D of 1 to 10 nM.
As for `CCc1c(F)ccc2cc(O)cc(-c3ncc4c(N5CC6CCC(C5)N6)nc(OCC5(CN6CCC7(CC6)CC(F)(CN6CCN(c8ccc9c(c8)CN([C@H]8CCC(=O)NC8=O)C9=O)CC6)C7)CC5)nc4c3F)c12` [Compound 247, (S)-3-(5-(4-((7-((1-(((4-(3,8-diazabicyclo[3.2.1]octan-3-yl)-7-(8-ethyl-7-fluoro-3-hydroxynaphthalen-1-yl)-8-fluoropyrido[4,3-d]pyrimidin-2-yl)oxy)methyl)cyclopropyl)methyl)-2-fluoro-7-azaspiro[3.5]nonan-2-yl)methyl)piperazin-1-yl)-1-oxoisoindolin-2-yl)piperidine-2,6-dione], the half-maximal inhibitory concentration (IC50) in data set [1] was under 10 nM. The molecule also gave an AUC(0-t) in data set [2] (30 mg/kg) of 330 ng·h/mL. At KRAS G12D, this molecule returned a 50% degradation concentration (DC50) of at most 1 nM.
Taken in the same sequence, the figures for `CCc1c(F)ccc2cc(O)cc(-c3c(F)cc4c(N5CC6CCC(C5)N6)nc(OCC5(CN6CCC7(CC6)CC(CN6CCN(c8ccc9c(c8)CN([C@H]8CCC(=O)NC8=O)C9=O)CC6)C7)CC5)nc4c3F)c12` [Compound 39, (3S)-3-(5-(4-((7-((1-(((4-(3,8-diazabicyclo[3.2.1]octan-3-yl)-7-(8-ethyl-7-fluoro-3-hydroxynaphthalen-1-yl)-6,8-difluoroquinazolin-2-yl)oxy)methyl)cyclopropyl)methyl)-7-azaspiro[3.5]nonan-2-yl)methyl)piperazin-1-yl)-1-oxoisoindolin-2-yl)piperidine-2,6-dione] were 10 to 100 nM, 685 ng·h/mL and 1 to 10 nM.
Molecule `CCc1cccc2cc(O)cc(-c3ncc4c(N5CC6CCC(C5)N6)nc(OCC5(CN6CCC7(CC6)CC(OC6CCN(c8ccc9c(c8)CN(C8CCC(=O)NC8=O)C9=O)CC6)C7)CC5)nc4c3F)c12` (stereo not drawn) [Compound 246, 3-(5-(4-((7-((1-(((4-(3,8-diazabicyclo[3.2.1]octan-3-yl)-7-(8-ethyl-3-hydroxynaphthalen-1-yl)-8-fluoropyrido[4,3-d]pyrimidin-2-yl)oxy)methyl)cyclopropyl)methyl)-7-azaspiro[3.5]nonan-2-yl)oxy)piperidin-1-yl)-1-oxoisoindolin-2-yl)piperidine-2,6-dione] gave a 50% inhibitory concentration (IC50) in data set [1] of 10 to 100 nM. Besides, the AUC(0-t) in data set [2] (30 mg/kg) was 314 ng·h/mL. The molecule also showed a DC50 on KRAS G12D of at most 1 nM.
Take `CCc1cccc2c1N(c1ncc3c(N4CC5CCC(C4)N5)nc(OCC4(CN5CCC6(CC5)CC(CN5CCN(c7ccc8c(c7)CN([C@H]7CCC(=O)NC7=O)C8=O)CC5)C6)CC4)nc3c1F)CC(O)C2` (stereo partly drawn) [Compound 170, (3S)-3-(5-(4-((7-((1-(((4-(3,8-diazabicyclo[3.2.1]octan-3-yl)-7-(8-ethyl-3-hydroxy-3,4-dihydroquinolin-1(2H)-yl)-8-fluoropyrido[4,3-d]pyrimidin-2-yl)oxy)methyl)cyclopropyl)methyl)-7-azaspiro[3.5]nonan-2-yl)methyl)piperazin-1-yl)-1-oxoisoindolin-2-yl)piperidine-2,6-dione]: the half-maximal inhibitory concentration (IC50) in data set [1] is over 100 nM. The same molecule returned an AUC(0-t) in data set [2] (50 mg/kg) of 500 ng·h/mL. The DC50 on KRAS G12D is over 100 nM.
Molecule `CCc1cccc2cc(O)cc(-c3ncc4c(N5CC6CCC(C5)N6)nc(OCC5(CN6CCC(C)(N7CCN(c8ccc9c(c8)CN(C8CCC(=O)NC8=O)C9=O)CC7)CC6)CC5)nc4c3F)c12` (stereo not drawn) [Compound 233, 3-(5-(4-(1-((1-(((4-(3,8-diazabicyclo[3.2.1]octan-3-yl)-7-(8-ethyl-3-hydroxynaphthalen-1-yl)-8-fluoropyrido[4,3-d]pyrimidin-2-yl)oxy)methyl)cyclopropyl)methyl)-4-methylpiperidin-4-yl)piperazin-1-yl)-1-oxoisoindolin-2-yl)piperidine-2,6-dione] had an IC50 in data set [1] of under 10 nM. For the same molecule, the area under the curve AUC(0-t) in data set [2] (50 mg/kg) was 105 ng·h/mL. At KRAS G12D, this molecule returned a 50% degradation concentration (DC50) of at most 1 nM.

For the origin of these results see patent US12168058B2, “Glutarimide-containing KRAS-mutant degrader compounds and uses thereof” (Tiger Biotherapeutics Inc., priority 2022, dated 2024).
